Laboratory results: US8334261B2, “Osteopenia animal model” (Oriental Yeast Co., Ltd., priority 2006, dated 2012)

Assays:
Assay type in all cases: in vivo, mouse
[1] = test system: 7-week-old female C57BL/6N mice; assay: Single-dose administration of GST-RANKL; details: for femur bone density decrease vs control: single dose
Method: The bone resorption markers and the osteogenesis markers in the serum were measured 12, 24, and 48 hours thereafter. Blood sampling was carried out before and immediately after GST-RANKL administration and 2, 4, 8, 12, 24, 48, and 72 hours after administration, followed by measurement of the serum human RANKL concentration by ELISA. In addition, 24 and 48 hours after administration, the femur bone density was measured with pQCT.

[2] = test system: GST-RANKL-administered 7-week-old female C57BL/6N mice; assay: Evaluation of a bone mass increase with low-dose PTH in GST-RANKL mice; details: GST-RANKL 1 mg/kg i.p. 2 times
Method: GST-RANKL was intraperitoneally administered 2 times to groups of 7-week-old female C57BL/6N mice at 1 mg/kg every 24 hours. PTH was subcutaneously administered thereto at 40 or 80 μg/kg from 24 hours after the 2nd administration every 24 hours for 10 consecutive days. In addition, PBS was administered to a group serving as the control group for the GST-RANKL and PTH administration groups for comparison. The serum and femur were collected from each mouse 24 hours after the end of administration for 10 days.
The serum collected from each mouse was subjected to measurement of serum bone resorption markers (Ca and TRAP-5b) and an osteogenesis marker (ALP). Each femur was subjected to measurement of the total bone density, the cortical bone density, the cortical bone thickness, the cortical bone mineral content, and the cortical bone density in the diaphysis with pQCT at points 0.6, 0.8, and 1.0 mm […] the distal growth plate on the proximal side. In addition, image analysis was carried out with micro CT.

[3] = test system: GST-RANKL-administered 7-week-old female C57BL/6 mice; assay: Comparison of a plurality of bisphosphonates in GST-RANKL mice; details: for femur bone density decrease vs PBS group: GST-RANKL 1 mg/kg 3 times
Method: GST-RANKL was intraperitoneally administered 3 times at 1 mg/kg every 24 hours. The femur, tibia, and serum were collected from each mouse 1.5 hours after the 3rd GST-RANKL administration. Measurement of TRAP-5b, calcium (Ca), and alkaline phosphatase (ALP) in the serum was carried out. Each femur was subjected to bone density measurement with pQCT and image analysis with micro CT.

[4] = test system: 7-week-old female C57BL/6N mice; assay: Bone healing after GST-RANKL administration
Method: GST-RANKL was intraperitoneally administered twice to groups of 7-week-old female C57BL/6N mice at 1 mg/kg every 24 hours. The time point 24 hours after the 2nd administration was designated as “week 0.” The serum and femur were collected from each mouse separately at weeks 0, 1, 4, 6, and 8 and compared with those collected from mice subjected to PBS administration in a similar manner. Regarding bone metabolism markers, TRAP-5b, calcium (Ca), and alkaline phosphatase (ALP) in the serum were measured. Each femur was subjected to bone density measurement with pQCT and image analysis with micro CT.
The bone density was measured at points 0.6 mm, 0.8 mm, 1.0 mm from the distal growth plate on the proximal side of the femur with the use of pQCT.

[5] = test system: 12-week-old male and female C57BL/6N mice; assay: GST-RANKL administration to 12-week-old mice
Method: GST-RANKL was intraperitoneally administered 3 times to 12-week-old male and female C57BL/6N mice at 1 mg/kg every 24 hours. The serum and femur were collected from each mouse 1.5 hours after the 3rd administration. The serum collected from each mouse was subjected to measurement of serum bone resorption markers (Ca and TRAP-5b) and an osteogenesis marker (ALP). Each femur was subjected to bone density measurement by dual energy X-ray absorptiometry (DEXA) and image analysis with micro CT.

female C57BL/6N mice = assay: Producing OVX mice in a short period of time (GST-RANKL plus ovariectomy)
Method: 7-week-old female C57BL/6N mice were reared for 25 days. Then, GST-RANKL was intraperitoneally administered twice thereto at 1 mg/kg every 24 hours. Ovariectomy was carried out 24 hours after the 2nd administration. Further, the femur, tibia, and serum were collected from each mouse 24 hours after ovariectomy. The obtained samples were compared with the samples obtained from a group that was reared for 4 weeks after ovariectomy. In addition, PBS was administered to control groups for comparison with GST-RANKL administration groups. The PBS administration groups were subjected to sham operation (Sham) for comparison with the groups subjected to ovariectomy.
Regarding bone metabolism markers, TRAP-5b, calcium (Ca), and alkaline phosphatase (ALP) in the serum were measured. Each femur was subjected to bone density measurement with pQCT and image analysis with micro CT. After the initiation of rearing, the date of implementation of OVX or sham operation was expressed as “day X.”

[6] = test system: GST-RANKL-administered 7-week-old female C57BL/6 mice; assay: Drug evaluation with bisphosphonate (risedronate) in GST-RANKL mice; details: for femur bone density decrease vs PBS group: RANKL alone
Method: Risedronate was separately administered via a subcutaneous route to groups of 7-week-old female C57BL/6 mice at doses of 3, 10, and 30 μg/kg every 24 hours from the day before GST-RANKL administration to the end of the experimentation. The femur and serum were collected from each mouse 1.5 hours after the 3rd administration of GST-RANKL. Measurement of TRAP-5b, calcium (Ca), and alkaline phosphatase (ALP) was carried out. Each femur was subjected to bone density measurement and image analysis with the use of pQCT.

[7] = 12-week-old male, no significant difference

## GST-RANKL: fused protein of Glutathione S-transferase with human RANKL residues 140-317, expressed in Escherichia coli, 47.0 kDa
[1]; single dose 1 mg/kg
  serum ALP concentration decrease: approximately 30%
[1]; single dose 1 mg/kg i.p.
  serum Ca concentration: no changes
[1]; single dose 1 mg/kg i.p., 24 hours later
  serum human RANKL concentration: undetectable
[1]; single dose 1 mg/kg i.p., ELISA
  time of peak serum human RANKL concentration after administration: 4 h
[1]; single dose 1 mg/kg, 12 hours after administration
  serum TRAP-5b concentration, fold as high as control: approximately 1.7 fold
[1]; 24 hours, 0.6 mm
  femur bone density decrease vs control: approximately 4%
[1]; 24 hours, 0.8 mm
  femur bone density decrease vs control: approximately 9%
[1]; 24 hours, 1.0 mm
  femur bone density decrease vs control: approximately 12%
[1]; 48 hours, 0.6 mm
  femur bone density decrease vs control: approximately 5%
[1]; 48 hours, 0.8 mm
  femur bone density decrease vs control: approximately 9%
[1]; 48 hours, 1.0 mm
  femur bone density decrease vs control: approximately 15%
[2]
  cortical bone density in the diaphysis, decrease vs PBS control: 3%
[3]; 0.6 mm
  femur bone density decrease vs PBS group: 7%
[3]; 0.8 mm
  femur bone density decrease vs PBS group: 13%
[3]; 1.0 mm
  femur bone density decrease vs PBS group: 18%
[3]; GST-RANKL 1 mg/kg i.p. 3 times, no significant difference
  serum TRAP-5b concentration increase: approximately 40%
[4]; 1 mg/kg i.p. twice, weeks 0 to 8
  serum Ca concentration: no significant difference
[4]; 0.6 mm, week 0
  femur bone density decreased to, vs PBS group: 5%
[4]; 0.6 mm, week 1
  femur bone density decreased to, vs PBS group: 7%
[4]; 0.6 mm, week 4
  femur bone density decreased to, vs PBS group: 9%
[4]; 0.8 mm, week 0
  femur bone density decreased to, vs PBS group: 10%
[4]; 0.8 mm, week 1
  femur bone density decreased to, vs PBS group: 11%
[4]; 0.8 mm, week 4
  femur bone density decreased to, vs PBS group: 15%
[4]; 1.0 mm, week 0
  femur bone density decreased to, vs PBS group: 16%
[4]; 1.0 mm, week 1
  femur bone density decreased to, vs PBS group: 13%
[4]; 1.0 mm, week 4
  femur bone density decreased to, vs PBS group: 11%
[4]; 24 hours after RANKL administration (0 week)
  serum TRAP-5b concentration, fold as high as PBS group: approximately 3 fold
[4]; week 6
  femur bone density vs PBS group: returned to a level comparable to that for the PBS administration group
[4]; weeks 0 and 1
  serum ALP concentration, fold as high: approximately 1.4 fold
[5]; 12-week-old female
  total bone density decrease (DEXA) vs control: 6%
[5]; 12-week-old female, no significant difference
  serum ALP concentration vs PBS group: tended to increase
[5]; 12-week-old female, p<0.01
  serum TRAP-5b concentration vs PBS group: significantly increased
[5]; 12-week-old female, p<0.05
  serum Ca concentration vs PBS group: significantly increased
[5]; 12-week-old male
  total bone density decrease (DEXA) vs control: 8%
[5]; 12-week-old male, 1 mg/kg i.p. 3 times, p<0.05
  serum TRAP-5b concentration vs PBS group: significantly increased
[5]; [7]
  serum ALP concentration vs PBS group: tended to increase
  serum Ca concentration vs PBS group: tended to increase
Female C57BL/6N mice; GST-RANKL administration OVX (day 27) group
  serum ALP concentration increase vs PBS+Sham (day 27) group: approximately 40%
Female C57BL/6N mice; GST-RANKL+OVX (day 27), 0.6 mm
  femur bone density decrease vs PBS+Sham (day 27): approximately 4%
Female C57BL/6N mice; GST-RANKL+OVX (day 27), 0.8 mm
  femur bone density decrease vs PBS+Sham (day 27): approximately 13%
Female C57BL/6N mice; GST-RANKL+OVX (day 27), 1.0 mm
  femur bone density decrease vs PBS+Sham (day 27): approximately 15%
Female C57BL/6N mice; GST-RANKL+Sham (day 27), 0.6 mm
  femur bone density decrease vs PBS+Sham (day 27): approximately 7%
Female C57BL/6N mice; GST-RANKL+Sham (day 27), 0.8 mm
  femur bone density decrease vs PBS+Sham (day 27): approximately 14%
Female C57BL/6N mice; GST-RANKL+Sham (day 27), 1.0 mm
  femur bone density decrease vs PBS+Sham (day 27): approximately 16%
Female C57BL/6N mice; every GST-RANKL administration group, 1 mg/kg i.p. twice, no significant difference
  serum TRAP-5b concentration, fold as high as PBS+Sham (day 27) group: approximately 1.8 fold
[6]; GST-RANKL 3 times
  serum Ca concentration: did not obviously vary
[6]; RANKL administration
  serum TRAP-5b concentration, fold as high: approximately 2 fold
[6]; 0.6 mm
  femur bone density decrease vs PBS group: 27%
[6]; 0.8 mm
  femur bone density decrease vs PBS group: 35%
[6]; 1.0 mm
  femur bone density decrease vs PBS group: 35%
